We go through eleven compounds from patent US9352004B2, “Muscle-derived cells (MDCs) for treating muscle- or bone-related injury or dysfunction” (University of Pittsburgh—Of the Commonwealth System of …, priority 1998, dated 2016).

One series has as its system bladder. To be noted: rat, in vivo. On the procedure: Micturition Pattern Measurement: Urination pattern profiles were obtained using a specialized metabolic cage which deflects voided urine for collection and quantification over a 24 hour period. Micturition parameters evaluated in the described experiments included total urine output/24 hours, number of micturitions/24 hours and mean volume per micturition (M. D. Chancellor et al., 1994, J. Urol., 151:250-254; T. Watanabe et al., 1996, J. Urol., 156:1507-1510).
To first assess the role of intravesicle NO on cyclophosphamide-induced cystitis, female S.D. rats received a single intraperitoneal injection of CYP (100 mg/kg) or vehicle. Voiding parameters (mean voided volume and number of voids) were then monitored for 24 hours in a metabolic cage. Forty-eight hours after CYP injection, bladder function was studied using continuous saline infusion (0.04 ml/min) cystometry via PE-50 transurethral catheter under urethane anesthesia.

The subject of the next series is bladder wall. In kind it is in vivo, rat. To be noted: 100 μM TBH4, control areas of the bladder.
For series [1], the system named is meniscal fibrochondrocytes. Nature of the series: Growth factors on meniscal fibrochondrocytes in vitro. In kind it is cell-based. Conditions: for expression of collagen and non-collagen proteins: meniscal fibrochondrocytes. An excerpt: In vitro data detail the effects of numerous growth factors on fibroblast proliferation and collagen production.
A further series relates to myoblasts. Nature of the series: Effect of growth factors on myoblast proliferation and fusion in vitro. Type of series: cell-based. Conditions: 1, 10 and 100 ng/ml, 48 and 96 hours. Here is the method:
Several growth factors, including acidic and basic fibroblast growth factors (aFGF and bFGF); epidermal growth factor (EGF); insulin-like growth factor-1 (IGF-1); platelet derived growth factor (PDGF); transforming growth factor β or α (TGF-β or TGF-α); and nerve growth factor (NGF) have been investigated for their ability to enhance the myogenic activity of muscle cells in vitro. Myoblasts were cultured with these trophic factors at different concentrations (1, 10 and 100 ng/ml), and the myoblast proliferation and differentiation were monitored at 48 and 96 hours post-incubation.

In another series the test system is injured muscle. Nature of the series: Muscle healing and twitch/tetanic strength in vivo after muscle contusion, laceration or strain. Set-up: species or system mouse; key to twitch strength / tetanic strength: (+) improvement in strength vs. non-injected muscles; (−) no improvement in strength vs. non-injected muscles. Conditions: for number of regenerating myofibers in vivo: direct injection into injured muscle (laceration, contusion, strain). On the procedure: Briefly, the muscle laceration was performed by cutting the gastrocnemius muscle of a mouse with scissors at 60% of its length from its distal insertion, 75% of its width, and 50% of its thickness. The muscle contusion was made by dropping a 16 gram ball through an impactor from a height of 100 centimeters onto the mouse's gastrocnemius muscle, and the muscle strain was performed by elongating the muscle-tendon unit to a pre-determined strain point at the rate of 1 cm/min.
In order to evaluate muscle healing following injury, histological staining (hematoxylin-eosin) in conjunction with immunohistochemical techniques were employed to assess the expression of desmin and vimentin. Since desmin is a cytoskeletal protein uniformly expressed in regenerating myofibers, it has been used to specifically locate regenerating myofibers. Vimentin is expressed in mononucleated fibrocytes and macrophages and has been used herein as a marker for fibrosis. […]

Another series deals with urethral smooth muscle. Briefly: Intraurethral NO donors: urethral perfusion pressure and isovolumetric bladder pressure. Conditions: rat, in vivo, iv. Here is the method: To first assess the role of NO donors on smooth muscle, urethral perfusion pressure and isovolumetric bladder pressure were measured with catheters inserted through the bladder dome in urethane anesthetized female S.D. rats (250-300 grams), (n=9). The catheter assembly was wedged in the bladder neck to block passage of fluid between the bladder and urethra without affecting the nerve supply to the organs. The external urethra was not catheterized. Responses were examined in the control state at an urethral saline infusion speed of 0.075 ml/min. After blocking striated urethral sphincter with intravenous alpha-bungarotoxin administration (100 mcg/kg), intraurethral drugs were administered.

“Also recorded” adds a separate entry of the source. Marks after values point to notes of the source that are not given here.

Method for bladder wall: For gene therapy experiments, myoblasts were transduced with the adenovirus containing the human inducible nitric oxide synthase (iNOS) gene at a multiplicity of infection of 50 (MOI=50) and were injected into the bladder and studied after 2 to 7 days.
The bladder was injected with a similar solution; however, the cell concentration ranged from 1.33×10^5 to 1×10^6 cells per 10 μl injection. Transduced myoblasts were prepared by incubating them for 24 hours with adenovirus vector containing the iNOS gene at a multiplicity of infection of 50 virus particles per cell. Immunohistochemical staining was performed on the cultured cells to ensure adequate infection and iNOS protein production.
NO release in the bladder and penis was measured by placing the tip of a Naflon-coated porphyrinic microsensor (dia. 10 μM; detection limit, 5 nM; response time, 1 ms) directly on the bladder surface (mucosal and serosal) and on the corporal cavernosum, respectively.

Regarding `O=P1(N(CCCl)CCCl)NCCCO1` (stereo not shown) [CYP, cyclophosphamide], in the series with bladder, the “number of micturitions during the 24 hours after CYP injection” value is reported as 117±86, the total micturition volume was 20.5 ± 9.2 mL and the “voiding frequency after 7 days” value worked out at 38±4.

Turning to `C[C@H](O)[C@H](O)[C@H]1CNc2nc(N)[nH]c(=O)c2N1` [TBH4, tetrahydrobiopterin], in the series with bladder wall, the “duration of NO release spike” value was < 5 s and the “spike in NO release” value fell in the range of 1 to 5 nM.

In the case of EGF: epidermal growth factor, in series [1], the “proliferation of the meniscal fibrochondrocytes” value was “improve”; the “expression of collagen and non-collagen proteins” value is “improve”. For the same compound, in the series on myoblasts, the “Fusion (differentiation into myotubules)” value is reported as “Inhibit” and the Proliferation entry is reported as “Inhibit”.

Take IGF: insulin-like growth factor-1: the “Fusion (differentiation into myotubules)” value is on record as “Stimulate” in the series on myoblasts and “increase myoblast differentiation into myotubules” in the series on myoblasts (listed as IGF-1). In addition, the Proliferation entry in the series on myoblasts is given as “Stimulate”; with myoblasts (listed as IGF-1), “significantly enhanced”. Also, the tetanic strength entry in the series with injured muscle (Muscle contusion), in the series with injured muscle (Muscle laceration) and with injured muscle (Muscle strain) was “+/+” in each case. The twitch strength result in the series with injured muscle (Muscle contusion), in the series with injured muscle (Muscle laceration) and in the series with injured muscle (Muscle strain) was “+/+” throughout. In addition, in the series with injured muscle, the “number of regenerating myofibers in vivo” value is “increase the number of regenerating myofibers”.

Consider NGF: nerve growth factor, for which the “Fusion (differentiation into myotubules)” value with myoblasts is recorded as “increase myoblast differentiation into myotubules; also recorded: Stimulate”. Also, the Proliferation result with myoblasts was “significantly enhanced; also recorded: Stimulate”. Besides, the tetanic strength result with injured muscle (Muscle contusion) is reported as “+/+*”; in the series on injured muscle (Muscle laceration) it was “−/−”; with injured muscle (Muscle strain) it was “−”. For the same compound, the twitch strength result with injured muscle (Muscle contusion) is “+/+*”; in the series with injured muscle (Muscle laceration) it was “−/−”; with injured muscle (Muscle strain), “+”. In the series with injured muscle, the “number of regenerating myofibers in vivo” value is reported as “increase the number of regenerating myofibers”.

With PDGF, in series [1], the “proliferation of the meniscal fibrochondrocytes” value is “improve”; the “expression of collagen and non-collagen proteins” value is given as “improve”. Also, in the series with myoblasts, the “Fusion (differentiation into myotubules)” value is listed as “Inhibit” and the Proliferation entry is reported as “Inhibit”.

Regarding TGF-α: transforming growth factor α, in series [1], the “proliferation of the meniscal fibrochondrocytes” value is “improve”; the “expression of collagen and non-collagen proteins” value is listed as “improve”. Further, in the series on myoblasts, the “Fusion (differentiation into myotubules)” value is “Inhibit” and the Proliferation entry is recorded as “Inhibit”.

As for TGF-β, in the series with myoblasts, the “Fusion (differentiation into myotubules)” value is reported as “Inhibit” and the Proliferation entry was “Inhibit”.

Consider a-FGF: acidic fibroblast growth factor, for which, in the series on myoblasts, the “Fusion (differentiation into myotubules)” value is given as “Stimulate” and the Proliferation result is “Inhibit”. Moreover, in the series with myoblasts (listed as aFGF), the “Fusion (differentiation into myotubules)” value is “increase myoblast differentiation into myotubules”.

With alpha-bungarotoxin, in the series on urethral smooth muscle, the “high frequency oscillations of urethral pressure” value was “abolished”.

Turning to b-FGF: basic fibroblast growth factor, in series [1], the “proliferation of the meniscal fibrochondrocytes” value is given as “improve”; the “expression of collagen and non-collagen proteins” value is “improve”. Besides, in the series on myoblasts, the “Fusion (differentiation into myotubules)” value is on record as “Stimulate” and the Proliferation entry is “significantly enhanced; also recorded: Stimulate”. Moreover, in the series on myoblasts (listed as bFGF), the “Fusion (differentiation into myotubules)” value is “increase myoblast differentiation into myotubules”. Also, in the series with injured muscle (Muscle contusion), the tetanic strength entry was “+/+” and the twitch strength result is given as “+/+”. Also, in the series with injured muscle (Muscle laceration), the tetanic strength entry is on record as “+/+” and the twitch strength entry is recorded as “+/+”. Besides, in the series with injured muscle (Muscle strain), the tetanic strength result was “+/+” and the twitch strength result is recorded as “+/+”. In addition, the “number of regenerating myofibers in vivo” value with injured muscle is “increase the number of regenerating myofibers”.
